According to publication PMC6146376, “Rational design of new cyclic analogues of the antimicrobial lipopeptide tridecaptin A1” (Chemical Communications (Cambridge, England), 2018):
Non-standard residues stand in square brackets, D forms with d. Residues, ends and D or L forms follow the SMILES beside them. *: point of attachment. d(aIle) = CC[C@H](C)[C@@H](N)C(=O)O; dAllylGly = C=CC[C@@H](N)C(=O)O; AllylGly = C=CC[C@H](N)C(=O)O; dDab = NCC[C@@H](N)C(=O)O; Octanoyl = CCCCCCCC(=O)*; Dab = NCC[C@H](N)C(=O)O

How the values were obtained:
[1] = test system: Staphylococcus aureus NCTC 10788; format: cell-based; conditions: NCTC 10788, 18 h
Description: (§1) [formula] Scheme 1 Synthesis of novel cyclic analogues of TriA1. MIC = minimum inhibitory concentration. Determined by microbroth dilutions assays and experiments run in duplicate. Values are shown to two significant figures and reported in μg mL^–1. ^a Strain NCTC 12241. ^b Strain NCTC 10788. ^c Strain NCTC 9633. ^d Strain NCTC 13304. ^e Strain NCTC 5920. […]
(§2) VIII. Antimicrobial testing
(§3) All minimum inhibitory concentrations (MICs) were determined according to Clinical and Standards Laboratory Institute (CLSI) guidelines.5 Briefly, peptides were dissolved in Muller-Hinton Broth (MHB) and serial dilutions made across a 96 well plate. Each well was inoculated with a suspension of the required bacterial strain to reach a final inoculum of 5 x 10^5 colony forming units per mL. The MIC was taken as the lowest concentration with no visible growth after 18 hours. […]

[2] = test system: Escherichia coli NCTC 12241; format: cell-based; conditions: NCTC 12241, 18 h
Description: as §1, §2, §3

[3] = test system: bacterial indicator strains; assay: Antimicrobial activity, strain not named in the sentence (microbroth dilution); format: cell-based; conditions: highest concentration tested 50 μg mL^–1
Description: as §1, §2, §3

[4] = format: physicochemical; conditions: pH 7.4
Description: The D-stereoselective peptidase TriF is a membrane associated protein found in Paenibacillus polymyxa CICC 10580.[7] TriFpep, the soluble periplasmic peptidase domain of TriF, which lacks the signal peptide and four hydrophobic transmembrane helices, was expressed in E. coli BL21 cells as a C-terminal His6-tag protein construct.[7] TriA1 analogues 1–9 were incubated with TriFpep at 37 °C for 12 h and the reaction mixtures analysed by UPLC-MS. […] We were unable to test the stability of Oct-cTriA1(biphenyl) (9) as it is insoluble in the TriF assay mixture. […] These analogues therefore represent a new scaffold of macrocyclic peptides with selective activity against Gram-negative bacteria. […]
All minimum inhibitory concentrations (MICs) were determined according to Clinical and Standards Laboratory Institute (CLSI) guidelines.5 Briefly, peptides were dissolved in Muller-Hinton Broth (MHB) and serial dilutions made across a 96 well plate. […]
TriFpep was expressed and purified as previously described.3 An assay mixture (total volume 30 μL in 25% phosphate-buffered saline (PBS) buffer, pH 7.4) containing TriFpep (2.0 μM) and the desired peptide (added as a DMSO solution to give a final concentration of 20 μM) was prepared and incubated for 12 h at 37 °C. […] The samples were centrifuged at 15,000 rpm for 10 min and 2 μL of the supernatant was analyzed by UPLC–MS system as previously described.3

Row | MIC S. aureus [1] | MIC E. coli [2] | Compound | antimicrobial activity (MIC bound, strain not named) [3] | solubility in the TriF assay mixture [4]
1 | 25 μg mL^–1 | 0.39 μg mL^–1 | CCCCCCCC(=O)N[C@@H](C(=O)N[C@H](CCN)C(=O)NCC(=O)N[C@H](CO)C(=O)N[C@H](Cc1c[nH]c2ccccc12)C(=O)N[C@@H](CO)C(=O)N[C@@H](CCN)C(=O)N[C@H](CCN)C(=O)N[C@@H](Cc1ccccc1)C(=O)N[C@@H](CCC(=O)O)C(=O)N[C@H](C(=O)N[C@@H](C(=O)N[C@@H](C)C(=O)O)[C@@H](C)CC)C(C)C)C(C)C [Peptide 1, Oct-TriA1] | – | –
2 | >50 μg mL^–1 | >50 μg mL^–1 | C=CC[C@H](NC(=O)[C@@H](CCN)NC(=O)[C@H](CCN)NC(=O)[C@H](CO)NC(=O)[C@@H](CC=C)NC(=O)[C@@H](CO)NC(=O)CNC(=O)[C@@H](CCN)NC(=O)[C@H](NC(=O)CCCCCCC)C(C)C)C(=O)N[C@@H](CCC(=O)O)C(=O)N[C@H](C(=O)N[C@@H](C(=O)N[C@@H](C)C(=O)O)[C@@H](C)CC)C(C)C [Peptide 2, Oct-TriA1-(5-D-Agl, 9-Agl)] (Octanoyl-[dV][dDab]G[dS][dAllylGly]S[Dab][dDab][AllylGly]EV[d(aIle)]A-OH) | – | –
3 | >50 μg mL^–1 | >50 μg mL^–1 | C=CCSC[C@H](NC(=O)[C@@H](CCN)NC(=O)[C@H](CCN)NC(=O)[C@H](CO)NC(=O)[C@@H](CSCC=C)NC(=O)[C@@H](CO)NC(=O)CNC(=O)[C@@H](CCN)NC(=O)[C@H](NC(=O)CCCCCCC)C(C)C)C(=O)N[C@@H](CCC(=O)O)C(=O)N[C@H](C(=O)N[C@@H](C(=O)N[C@@H](C)C(=O)O)[C@@H](C)CC)C(C)C [Peptide 3, Oct-TriA1-(5-D-Sac, 9-Sac)] | – | –
4 | >50 μg mL^–1 | >50 μg mL^–1 | CCCCCCCC(=O)N[C@@H](C(=O)N[C@H](CCN)C(=O)NCC(=O)N[C@H](CO)C(=O)N[C@H](CS)C(=O)N[C@@H](CO)C(=O)N[C@@H](CCN)C(=O)N[C@H](CCN)C(=O)N[C@@H](CS)C(=O)N[C@@H](CCC(=O)O)C(=O)N[C@H](C(=O)N[C@@H](C(=O)N[C@@H](C)C(=O)O)[C@@H](C)CC)C(C)C)C(C)C [Peptide 4, Oct-TriA1-(5-D-Cys, 9-Cys)] | – | –
5 | – | – | CCCCCCCC(=O)N[C@@H](C(=O)N[C@H](CCN)C(=O)NCC(=O)N[C@H](CO)C(=O)N[C@@H]1CSCc2ccc(cc2)-c2ccc(cc2)CSC[C@@H](C(=O)N[C@@H](CCC(=O)O)C(=O)N[C@H](C(=O)N[C@@H](C(=O)N[C@@H](C)C(=O)O)[C@@H](C)CC)C(C)C)NC(=O)[C@@H](CCN)NC(=O)[C@H](CCN)NC(=O)[C@H](CO)NC1=O)C(C)C [Peptide 9, Oct-cTriA1 (biphenyl)] | > 50 μg mL^–1 | insoluble
